Measurements from US12070448B2, “Use of carbamate compound for prevention, alleviation or treatment of status epilepticus” (SK BIOPHARMACEUTICALS CO., LTD., priority 2018, dated 2024).

Tests used:
[1] = system: pilocarpine-induced status epilepticus; experiment: Pilocarpine-induced status epilepticus in mice; assay type: in vivo, mouse; details: for Mortality: 50 min
Experimental: Male mice (C57BL/6, 21-24 g) were used. The experimental animals were housed under a 12-hour light/dark cycle (lighting from 7 pm to 7 am) and maintained at a temperature of 22-25° C. and about 40 to 60% relative humidity. Food and water were provided ad libitum. The animals were randomly divided into the following groups. […]
Experimental Groups of Administering Positive Control and Test Compound 10 Minutes after Onset of Status Epilepticus • As a control, 13 mice intraperitoneally single administered with 30% PEG300 (vehicle) at a volume of 10 ml/kg • As a positive control, 12 mice intraperitoneally single administered valproic acid (VPA) at a dose of 200 mg/kg (10 ml/kg) • 13 Mice intraperitoneally single administered Test Compound at a dose of 25 mg/kg (10 ml/kg) Induction of Status Epilepticus
Methylscopolamine was dissolved in a vehicle (0.9% saline) at a concentration of 1 mg/kg (10 m/kg) and administered subcutaneously to the back of the neck. After 30 minutes, pilocarpine was dissolved in a vehicle (0.9% saline) at a concentration of 320 mg/kg (10 ml/kg) and administered intraperitoneally.
In the case of the drug-administered experimental groups 10 minutes after onset of status epilepticus, valproic acid and Test Compound were administered 10 minutes after onset of status epilepticus. […]
In the case of the drug-administered experimental groups 10 minutes after onset of status epilepticus, Test Compound was administered intraperitoneally at a dose of 25 mg/kg (10 ml/kg). At the same time point, valproic acid (positive control group) was administered intraperitoneally at a dose of 200 mg/kg (10 ml/kg). […]
In the case of the drug-administered experimental groups 10 minutes after onset of status epilepticus, the effects of the compound were represented as the mean±standard error, and statistical significance was recognized when there was a difference of p<0.05 in data using one-way ANOVA and a Tukey's test as a post-hoc test.

[2] = system: low Mg2+-induced seizure-like events (SLEs) in CA1 pyramidal neurons of hippocampal slices; experiment: Whole-cell patch-clamp model of low Mg2+-induced seizure-like events in mouse hippocampal slices; assay type: cell-based; details: for Duration of SLE in comparison with before treatment of Test Compound, during treatment / Number of SLE in comparison with before treatment of Test Compound, during treatment: 100 μM; for Duration of SLE in comparison with before treatment of Test Compound, during treatment / Number of SLE in comparison with before treatment of Test Compound, during treatment / Duration of SLE in comparison with before treatment of Test Compound, after washing / Number of SLE in comparison with before treatment of Test Compound, after washing: mean±standard error; for Duration of SLE in comparison with before treatment of Test Compound, after washing / Number of SLE in comparison with before treatment of Test Compound, after washing: after washout of 100 μM
Experimental: Male mice (C57BL/6, 24-26 g) were used. The experimental animals were housed under a 12-hour light/dark cycle (lighting from 7 pm to 7 am) and maintained at a temperature of 22-25° C. and about 40 to 60% relative humidity. Food and water were provided ad libitum.
For whole-cell patch-clamp recording, the brain of the mouse was excised, and the hippocampal slices ([…]) were prepared with oxygenated artificial cerebrospinal fluid (ACSF) (124 mM NaCl, 3.0 mM KCl, 1.23 mM NaH2PO4, 2.2 mM CaCl2, 1.2 mM MgCl2, 26 mM NaHCO3, and 10 mM glucose, pH 7.4). All experiments were performed in visually guided CA1 pyramidal neurons, and a glass pipette (4-5 MΩ) was used for recording. After incubating the tissue for 1 hour, a single slice was submerged in a recording chamber and continuously superfused with oxygenated artificial cerebrospinal fluid (32° C.; 95% O2/5% CO2).
For low Mg^2+-induced seizure-like events (SLEs) measurement, 0 mM MgCl2 and 5.0 mM KCl were used. SLEs were defined by more than three spikes in a burst. Whole-cell patch-clamp currents were digitized with a MultiClamp 700B amplifier and a Digidata 1440 (Axon Instruments, CA), and the acquired data were analyzed with the pCLAMP version 10.2 (Axon Instruments) and the Mini Analysis Program (Synaptosoft).
Early SLEs (immediately after onset of SLEs): measurement of SLEs observed 20-30 minutes after the application of low Mg^2+ ACSF.
Late SLEs (after 1 hour incubation in low Mg^2+ ACSF): measurement of SLEs observed immediately after whole-cell rupture.
The treatment of the compound for measuring the effect of Test Compound was initiated 10-15 minutes after the occurrence of SLEs.
The effect of Test Compound was a comparison value (%) to the SLE value that occurred after the treatment of low Mg^2+ ACSF and before the treatment of Test Compound, and was represented as the mean±standard error. When there was a difference of p<0.05 in data by using Student's t-test, statistical significance was recognized.

[3] = Drug administration 10 min after onset of status epilepticus, 200 mg/kg i.p., observed 50 min, mean±standard error
[4] = Early SLE, treatment started 10-15 min after occurrence of SLE, n=5
[5] = Early and late SLEs, 100 μM treated 10-15 minutes after occurrence of SLE, compared to after washing
[6] = Late SLE (after 1 hour in low Mg2+ ACSF), n=8

CCCC(CCC)C(=O)O [Positive control group, valproic acid, reference compound]
Mortality ([1]; Drug administration 10 min after onset of status epilepticus, 200 mg/kg i.p.): 14%
Seizure count [1, 3]: 0.8 ± 0.18
Seizure score (modified Racine score) [1, 3]: 3.2 ± 0.39

NC(=O)O[C@@H](Cn1ncnn1)c1ccccc1Cl [Test Compound, Carbamic acid (R)-1-(2-chlorophenyl)-2-tetrazol-2-yl-ethyl ester]
Mortality, result in words ([1]; 20 mg/kg i.p. immediately after occurrence of status epilepticus, compared to the control group): tendency to suppress mortality
Mortality ([1]; Drug administration 10 min after onset of status epilepticus, 25 mg/kg i.p.): 0%
Mortality ([1]; Drug administration immediately after onset of status epilepticus, 20 mg/kg i.p.): 0%
Duration of SLE in comparison with before treatment of Test Compound, during treatment [2, 4]: 15.39 ± 6.82%
Number of SLE in comparison with before treatment of Test Compound, during treatment [2, 4]: 31.45 ± 16.13%
Duration of SLE in comparison with before treatment of Test Compound, after washing ([2]; Early SLE, n=5): 83.63 ± 5.14%
Number of SLE in comparison with before treatment of Test Compound, after washing ([2]; Early SLE, n=5): 91.99 ± 16.47%
Duration of SLE, result in words [2, 5]: significantly reduced
Number of SLE, result in words [2, 5]: significantly reduced
Duration of SLE in comparison with before treatment of Test Compound, during treatment [2, 6]: 42.61 ± 3.50%
Number of SLE in comparison with before treatment of Test Compound, during treatment [2, 6]: 62.12 ± 5.59%
Duration of SLE in comparison with before treatment of Test Compound, after washing ([2]; Late SLE, n=8): 81.81 ± 13.78%
Number of SLE in comparison with before treatment of Test Compound, after washing ([2]; Late SLE, n=8): 92.36 ± 8.21%
